Experimental findings from patent US11617715B2, “Methods and compositions for modifying the behavior of animals” (Texas Tech University System, priority 2016, dated 2023) are described below.

The structures appear in SMILES notation.

In the assay the test system is dog barking and jumping. Kind of assay: Teaser dog kennel test of dog barking and jumping. It is filed as in vivo. Particulars: kennel dogs with teaser dog; for effectiveness in reducing barking and jumping (Quinoline compared to Androstenone): Study 3. As for the experimental part: The efficacy of Quinoline was tested in three studies conducted to determine if Quinoline would reduce dog barking and jumping. The composition used in the experiments comprised approximately 4 micrograms per milliliter of Quinoline.
The basic parameters of the test involved walking a teaser dog in the center aisle of a dog kennel with test dogs on either side in kennels. The kennels were chain-linked fence with concrete floors. The researchers walked a teaser dog down the aisle and recorded dogs jumping and barking over a two minute period.
In the first study, three treatments were evaluated. Treatment 1 represented no treatment of any kind. The teaser animal simply stood at the test subjects' kennel.
Treatment 2 represented a control treatment. In this case, the delivery vehicle (isopropyl alcohol) spray was administered without Quinoline.
In treatment 3, Quinoline was administered to the test subject animals.
In study 2, the efficacy of Quinoline alone was tested. Test 2 was conducted a week after test 1. The same procedure was used in study 2 except that the test animals were only subject to the delivery of Quinoline.
In study 3, Quinoline was compared to Androstenone (the compound described in U.S. Pat. No. 9,044,395). Again, the same procedures were used in study 3; the test animals were subject to Quinoline and Androstenone.

[1] abbreviates: Study 1, treatment 3, Quinoline approximately 4 micrograms per milliliter, spray.
[2] abbreviates: Study 2, Quinoline alone, a week after study 1.

In the case of `C[C@]12CCC(=O)C[C@@H]1CC[C@@H]1[C@@H]2CC[C@]2(C)C=CC[C@@H]12` [Androstenone, reference compound], the “effectiveness in reducing barking and jumping (Quinoline compared to Androstenone)” value is “approximately equivalently effective”.

As to `c1ccc2ncccc2c1` [Quinoline], the “effectiveness in reducing barking and jumping (Quinoline compared to Androstenone)” value is recorded as “approximately equivalently effective”. For the same molecule, under setting [1], the reduced barking is on record as 80% and the reduced jumping is reported as 90%. Besides, under setting [2], the reduced barking stood at 100% and the reduced jumping turned out to be 90%.
